Data from US20160101093A1, “METHODS FOR THE TREATMENT OF PREMATURE EJACULATION” (priority 2013, published 2016).

Experiments:
[1] = system: patient with premature ejaculation; assay: Randomized blinded study of clinician-administered bupivacaine injection, IELT and PEP recorded (Example 4); assay type: in vivo, human; settings: 0.25% bupivacaine
Method: A patient with premature ejaculation is 18 years or old and in a monogamous heterosexual relationship for 6 months. A screening/baseline run-in phase will request at least 4 measurements of IELT over a 4-6 week period. For each sexual episode, partner will record PEP, IELT, date and time of sexual encounter; patient will fill out PEP. To qualify for the treatment phase, patients must have a measured IELT of 2 minutes or less in 75% of valuable events. A volume of distribution of 0.4 and 0.8 mL will bathe the dorsal penile nerves as they are located just to the right and left of midline. Diffusion should occur across the midline given that the subcutaneous compartment has a low resistance to fluid migration. Diffusion of the drug solution should occur through Buck's fascia to the dorsal penile nerves. A concentration of bupivacaine (0.25%) is used for local nerve blocks. Doses of administration are of 1 mg of bupivacaine for the 0.4 mL volume and 2 mg for the 0.8 mL group. This is less than 1.5% of the maximum permitted dose. […] Patients will be randomized to one of 4 treatment groups. […] Subsequently, patient will be evaluated for eligibility for “treatment phase”—must have either: (1) IELT of 2 minutes or less in at least 75% or sexual episodes; or (2) IELT of 3 minutes or less in at least 75% of sexual episodes with PEP score indicating accompanying psychosocial or relationship distress. […]

[2] = system: patient with lifelong premature ejaculation; assay: Patient self-injection of bupivacaine at home, subcutaneous, dorsal penis (contemplated Examples 1 and 2); assay type: in vivo, human; settings: dorsally within 1 cm proximal to the glans, self-injected
Method: “Prolongation of climax time” means an increase in time (increase in climax baseline time) from which a patient becomes sexually aroused to the time of sexual climax (i.e. orgasm). This is commonly measured as the ‘intravaginal latency time’ and is measured by stopwatch held and activated by the female partner commencing with insertion of male organ into the female, ending at climax of the male. In one aspect, “treating premature ejaculation” means increasing the time between the beginning of sexual arousal of a patient and ejaculation by the patient; and in particular instances, it can mean increasing the time from which sexual intercourse begins to the time of ejaculation. It is contemplated by the present invention, that a patient with lifelong premature ejaculation and relationship stress proceeds to contact their physician. The physician prescribes a teaching injection of 0.2 mL bupivacaine. The administration of bupivacaine is made dorsally just before the glans, e.g., within 1 cm proximal to the glans. The injection is made subcutaneously to the left or right of midline. The injection anesthetizes the dorsal penile nerve. A 30-32 gauge needle is used, and the need is 10 mm or less (e.g., between 4-10 mm, e.g., 4 mm). […] In one aspect the patient sees an improvement in prolonging climax from 45 seconds (prior to treatment) to 4 minutes (following treatment). It is contemplated by the present invention, that a patient with lifelong premature ejaculation and relationship stress proceeds to contact their physician. The physician prescribes a teaching injection of 0.4 mL bupivacaine. The administration of bupivacaine is made dorsally just before the glans, e.g., within 1 cm proximal to the glans. The injection is made subcutaneously to the left or right of midline. The injection anesthetizes the dorsal penile nerve. A 30-32 gauge needle is used, and the need is 7 mm or less (between 4-7 mm). […] In one aspect the patient sees an improvement in prolonging climax from 45 seconds (prior to treatment) to 4 minutes (following treatment).

CCCCN1CCCCC1C(=O)Nc1c(C)cccc1C (centres unmarked) [bupivacaine]
adverse dose-related effects ([1]; 1 mg (0.4 mL) or 2 mg (0.8 mL)): not anticipated
climax time following treatment (45 seconds prior to treatment) ([1]; treatment groups, 1 mg in 0.4 mL or 2 mg in 0.8 mL, clinician-injected): 4 min
climax time following treatment (45 seconds prior to treatment) ([2]; 0.2 mL bupivacaine): 4 min
intravaginal latency time increase ([2]; 0.2 mL bupivacaine): increases more than two-fold
side-effect profile compared to previous therapies ([2]; 0.2 mL bupivacaine): better side-effect profile compared to previous therapies
climax time following treatment (45 seconds prior to treatment) ([2]; 0.4 mL bupivacaine): 4 min
intravaginal latency time increase ([2]; 0.4 mL bupivacaine): increases more than two-fold
side-effect profile compared to previous therapies ([2]; 0.4 mL bupivacaine): better side-effect profile compared to previous therapies
